This note sets out measurements from ChEMBL document CHEMBL1131012, “Heteroaryl analogues of AMPA. 2. Synthesis, absolute stereochemistry, photochemistry, and structure-activity relationships” (J Med Chem, 1998).

Assay [1] deals with Glutamate receptor ionotropic, kainate. Nature of the assay: Ability to inhibit the binding of [3H]-kainic acid radioligand to Ionotropic glutamate receptor kainate in rat brain membranes. It is filed as cell membranes.
The target of another assay is Glutamate NMDA receptor. In words: Ability to inhibit the binding of [3H]CPP radioligand to N-methyl-D-aspartate glutamate receptor in rat brain membranes. The format is cell membranes.
Assay [2] deals with T1, Glutamate receptor ionotropic, AMPA (Rattus norvegicus, UniProt P19490+P19491+P19492+P19493).
Description: Agonist effect for Ionotropic glutamate receptor AMPA was determined from in vitro electrophysiology studies using rat cortical wedge preparation.
Assay [3] has as its target T1, Glutamate receptor ionotropic, AMPA. The source holds these as a separate data set.
Description: Ability to inhibit the binding of [3H]AMPA radioligand to Ionotropic glutamate receptor AMPA in rat brain membranes.

A word on the IC50: it is the concentration at which inhibition is half-maximal. A higher IC50 goes with lower potency. A word on the EC50: it is the concentration at which the effect is half-maximal. Turning to `NC(Cc1c(O)noc1-c1nccs1)C(=O)O` (stereo unspecified), the IC50 in assay [1] was 4.9 µM; on Glutamate NMDA receptor, > 100 µM; in assay [3], 0.094 µM. The compound further gave an EC50 in assay [2] of 2.3 µM.
For `NC(Cc1c(O)noc1-c1cccnc1)C(=O)O` (stereo unspecified), the IC50 (in assay [1]; on Glutamate NMDA receptor; in assay [3]) was > 100 µM throughout. Further, in assay [2], the EC50 is > 1000 µM.
With `N[C@H](Cc1c(O)noc1-c1ccccn1)C(=O)O`, the IC50 (in assay [1]; at Glutamate NMDA receptor; in assay [3]) was > 100 µM in each case. Moreover, the EC50 in assay [2] is > 100 µM.
For the compound `N[C@H](Cc1c(O)noc1-c1ccccc1)C(=O)O`, the concentration giving a half-maximal response (EC50) in assay [2] is > 100 µM.
As for `NC(Cc1c(O)noc1-c1ccc(Br)o1)C(=O)O` (stereo unspecified), the half-maximal inhibitory concentration (IC50) in assay [1] is > 100 µM; on Glutamate NMDA receptor, > 100 µM; in assay [3], 12 µM. The same compound gave an EC50 in assay [2] of 160 µM.
For the compound `Cc1cccc(-c2onc(O)c2CC(N)C(=O)O)n1` (stereo unspecified), the IC50 (in assay [1]; at Glutamate NMDA receptor; in assay [3]) was > 100 µM each time. Further, the EC50 in assay [2] was > 1000 µM.
Regarding `NC(Cc1c(O)noc1-c1ccc2ccccc2n1)C(=O)O` (stereo unspecified), the IC50 (in assay [1]; at Glutamate NMDA receptor; in assay [3]) was > 100 µM each time. For the same compound, in assay [2], the EC50 is > 1000 µM.
Turning to `N[C@@H](Cc1c(O)noc1-c1ccccn1)C(=O)O`, the half-maximal inhibitory concentration (IC50) in assay [1] was > 100 µM; at Glutamate NMDA receptor it was > 100 µM; in assay [3] it was 0.19 µM. Also, the response in assay [2] was half-maximal at 4.5 µM (EC50).
`N[C@@H](Cc1c(-c2ccccc2)o[nH]c1=O)C(=O)O` yielded an IC50 in assay [3] of 5.5 µM.
As to `N[C@H](Cc1c(O)noc1-c1ccco1)C(=O)O`, the IC50 in assay [1] is > 100 µM; on Glutamate NMDA receptor it was > 100 µM; in assay [3], 100 µM. The EC50 in assay [2] was > 1000 µM.
For the compound `NC(Cc1c(O)noc1-c1ccccn1)C(=O)O` (stereo unspecified), the IC50 was > 100 µM in assay [1], > 100 µM at Glutamate NMDA receptor and 0.57 µM in assay [3]. This compound also returned a half-maximal effective concentration (EC50) in assay [2] of 7.4 µM.
With `NC(Cc1c(O)noc1-c1ccncc1)C(=O)O` (stereo unspecified), the values for the concentration for half-maximal inhibition (IC50) (in assay [1]; at Glutamate NMDA receptor; in assay [3]) were > 100 µM, > 100 µM and 5.5 µM, respectively. Also, the concentration giving a half-maximal response (EC50) in assay [2] was determined as 96 µM.
For the compound `NC(Cc1c(O)noc1-c1ccco1)C(=O)O` (stereo unspecified), the IC50 in assay [1] was > 100 µM; at Glutamate NMDA receptor it was > 100 µM; in assay [3] it was 0.15 µM. In assay [2], this compound registered a 50% effective concentration (EC50) of 1.7 µM.
`N[C@@H](Cc1c(O)noc1-c1ccco1)C(=O)O`: the values for the IC50 (in assay [1]; at Glutamate NMDA receptor; in assay [3]) were > 100 µM, > 100 µM and 0.11 µM, respectively. Also, the midpoint of the response in assay [2], the EC50, lay at 0.71 µM.
`C=C(C)[C@H]1CN[C@H](C(=O)O)[C@H]1CC(=O)O` [KAINIC ACID]: the IC50 on Glutamate NMDA receptor was > 100 µM.
